From patent US7022694B2, “Indoles and indolines having 5-HT activity” (Pharmacia & UpJohn Company, priority 2001, dated 2006)

melting point [°C]	SMILES
150 to 153	CN1CCc2ccc3cc[nH]c3c2CC1
129 to 132	c1cnc2c(OCCn3ccc4ccc5c(c43)CCNCC5)cccc2c1 [Example 6, 1-[2-(8-Quinolinyloxy)ethyl]-1,6,7,8,9,10-hexahydroazepino[4,5-g]indole]
